The source of these data is ChEMBL document CHEMBL1141936, “Structural basis for the GSK-3beta binding affinity and selectivity against CDK-2 of 1-(4-aminofurazan-3yl)-5-dialkylaminomethyl-1H-[1,2,3] triazole-4-carboxylic acid derivatives” (Bioorg Med Chem Lett, 2005).

Assay [1] deals with Glycogen synthase kinase-3 beta (Homo sapiens, UniProt P49841). The experiment in a line: Inhibitory activity against GSK3-beta.
Assay [2] deals with Cyclin-dependent kinase 2 (Homo sapiens, UniProt P24941). The experiment in a line: Inhibitory activity against CDK2.

Molecules are shown by their SMILES.

Chain of Glycogen synthase kinase-3 beta (P49841 whole entry): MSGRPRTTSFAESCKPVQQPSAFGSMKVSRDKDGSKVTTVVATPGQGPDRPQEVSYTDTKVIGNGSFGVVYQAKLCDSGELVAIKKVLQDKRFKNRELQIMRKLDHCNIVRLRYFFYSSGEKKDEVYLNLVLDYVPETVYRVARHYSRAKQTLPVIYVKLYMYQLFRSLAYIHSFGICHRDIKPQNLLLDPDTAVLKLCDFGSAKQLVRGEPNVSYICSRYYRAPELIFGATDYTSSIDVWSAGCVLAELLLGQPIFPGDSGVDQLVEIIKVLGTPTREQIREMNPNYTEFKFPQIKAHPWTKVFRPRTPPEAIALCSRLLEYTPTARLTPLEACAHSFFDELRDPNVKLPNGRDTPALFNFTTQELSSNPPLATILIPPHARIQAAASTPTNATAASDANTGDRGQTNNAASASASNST

As to `NC1=NONC1N1N=NC(C(=O)N/N=C/c2ccncc2)C1CN1CCCCC1` (centres undefined), the IC50 amounted to 100 nM in assay [1] and 96000 nM in assay [2].

For the molecule `NC1=NONC1N1N=NC(c2nnc(-c3ccncc3)[nH]2)C1CN1CCCCC1` (centres undefined), the IC50 was 280 nM in assay [1] and more than 250000 nM in assay [2].

Broadly, the IC50 is the concentration at which inhibition is half-maximal. Low values mean inhibition by little substance, high ones a need for much substance.
